Data published in patent US20220380320A1 (priority 2019, published 2022).

How the values were obtained:
[1] = system: vero cells (ATCC CCL-81)
[2] = in vitro; details: African green monkey
[3] = system: MERS-CoV; experiment: microbe, parasite or virus in culture; assay type: cell-based; details: for EC50: Middle East respiratory syndrome-related coronavirus, Vero, 24 h

Row | SMILES | toxicity to host cells [1] | CC50 [2] [µM] | SI [3] | EC50 [3] [µM]
1 | Cc1cccc(C)c1OCC(=O)N[C@@H](Cc1ccccc1)[C@@H](O)C[C@H](Cc1ccccc1)NC(=O)[C@H](Cc1ccccc1)N1CCCNC1=O [Compound 1, (S)-N-((2S,4S,5S)-5-(2-(2,6-dimethylphenoxy)acetamido)-4-hydroxy-1,6-diphenylhexane-2-yl)-2-(2-oxotetrahydropyrimidin-1(2H)-yl)-3-phenylpropanamide] | minimal toxicity | > 50 | 21.74 | 2.03
2 | Cc1cccc(C)c1OCC(=O)N[C@@H](Cc1ccccc1)[C@@H](O)C[C@H](Cc1ccccc1)NC(=O)[C@](C)(C(C)C)N1CCCNC1=O [Compound 2, (S)-N-((2S,4S,5S)-5-(2-(2,6-dimethylphenoxy)acetamido)-4-hydroxy-1,6-diphenylhexane-2-yl)-2,3-dimethyl-2-(2-oxotetrahydropyrimidin-1(2H)-yl)butanamide] | minimal toxicity | > 50 |  | 
3 | Cc1cccc(C)c1OCC(=O)N[C@@H](Cc1ccccc1)[C@@H](O)C[C@H](Cc1ccccc1)NC(=O)[C@@](C)(C(C)C)N1CCCNC1=O [Compound 3, (R)-N-((2S,4S,5S)-5-(2-(2,6-dimethylphenoxy)acetamido)-4-hydroxy-1,6-diphenylhexane-2-yl)-2,3-dimethyl-2-(2-oxotetrahydropyrimidin-1(2H)-yl)butanamide] | minimal toxicity | > 50 |  | 
4 | Cc1cccc(C)c1OCC(=O)N[C@@H](Cc1ccccc1)[C@@H](O)C[C@H](Cc1ccccc1)NC(=O)C1(N2CCCNC2=O)CCCC1 [Compound 4, N-((2S,4S,5S)-5-(2-(2,6-dimethylphenoxy)acetamido)-4-hydroxy-1,6-diphenylhexan-2-yl)-1-(2-oxotetrahydropyrimidine-1 (2H)-yl) cyclopentanecarboxamide] | minimal toxicity | > 50 | 6.53 | 7.66
5 | Cc1cccc(C[C@@H](C(=O)N[C@@H](Cc2ccccc2)C[C@H](O)[C@H](Cc2ccccc2)NC(=O)COc2c(C)cccc2C)N2CCCNC2=O)c1 [Compound 5, (S)-N-((2S,4S,5S)-5-(2-(2,6-dimethylphenoxy)acetamido)-4-hydroxy-1,6-diphenylhexane-2-yl)-2-(2-oxotetrahydropyrimidin-1(2H)-yl)-3-(m-tolyl)propanamide] | minimal toxicity | > 50 | 17.91 | 2.79
6 | Cc1cccc(C)c1OCC(=O)N[C@@H](Cc1ccccc1)[C@@H](O)C[C@H](Cc1ccccc1)NC(=O)[C@H](Cc1ccc(F)cc1)N1CCCNC1=O [Compound 7, (S)-N-((2S,4S,5S)-5-(2-(2,6-dimethylphenoxy)acetamido)-4-hydroxy-1,6-diphenylhexane-2-yl)-3-(4-fluorophenyl)-2-(2-oxotetrahydropyrimidin-1(2H)-yl)propanamide] | minimal toxicity | > 50 | 23.96 | 2.09
7 | Cc1cccc(C)c1OCC(=O)N[C@@H](Cc1ccccc1)[C@@H](O)C[C@H](Cc1ccccc1)NC(=O)[C@H](Cc1ccc(C(F)(F)F)cc1)N1CCCNC1=O [Compound 8, (S)-N-((2S,4S,5S)-5-(2-(2,6-dimethylphenoxy)acetamido)-4-hydroxy-1,6-diphenylhexane-2-yl)-2-(2-oxotetrahydropyrimidin-1(2H)-yl)-3-(4-(trifluoromethyl)phenyl)propanamide] | minimal toxicity | > 50 | 40.88 | 1.22
8 | Cc1cccc(C)c1OCC(=O)N[C@@H](Cc1ccccc1)[C@@H](O)C[C@H](Cc1ccccc1)NC(=O)[C@H](Cc1ccc(C#N)cc1)N1CCCNC1=O [Compound 9, (S)-3-(4-cyanophenyl)-N-((2S,4S,5S)-5-(2-(2,6-dimethylphenoxy)acetamido)-4-hydroxy-1,6-diphenylhexan-2-yl)-2-(2-oxotetrahydropyrimidin-1(2H)-yl)propanamide] | minimal toxicity | > 50 | 19.33 | 2.59
9 | Cc1cccc(C)c1OCC(=O)N[C@@H](Cc1ccccc1)[C@@H](O)C[C@H](Cc1ccccc1)NC(=O)[C@H](Cc1cccs1)N1CCCNC1=O [Compound 10, (S)-N-((2S,4S,5S)-5-(2-(2,6-dimethylphenoxy)acetamido)-4-hydroxy-1,6-diphenylhexane-2-yl)-2-(2-oxotetrahydropyrimidin-1(2H)-yl)-3-(thiophen-2-yl)propenamide] | minimal toxicity | > 50 | 15.06 | 3.32
10 | Cc1cccc(C)c1OCC(=O)N[C@@H](Cc1ccccc1)[C@@H](O)C[C@H](Cc1ccccc1)NC(=O)[C@H](C(C)C)N1CCCNC1=O [Positive control, Lopinavir, reference compound] |  | > 50 | 4.78 | 10.5
